Source: PubChem BioAssay (NCI)
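Protocol summary: plate cells (96-well), add compound at 5 concentrations, incubate 48 h, interpolate endpoints linearly. GI50 = concentration required for 50% inhibition of growth. TGI: total growth inhibition.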

Assays:
Experiment in all cases: DTP human tumour cell line panel, 48 h
SK-OV-3 ovarian = tested on: SK-OV-3 ovarian
OVCAR-5 ovarian = tested on: OVCAR-5 ovarian
SF-295 CNS = tested on: SF-295 CNS
CAKI-1 renal = tested on: CAKI-1 renal
SNB-19 CNS = tested on: SNB-19 CNS
PC-3 prostate = tested on: PC-3 prostate
HL-60(TB) leukemia = tested on: HL-60(TB) leukemia
MDA-MB-435 = tested on: MDA-MB-435
OVCAR-4 ovarian = tested on: OVCAR-4 ovarian
RPMI-8226 leukemia = tested on: RPMI-8226 leukemia

| SMILES | GI50 (SK-OV-3 ovarian) [µM] | TGI (SK-OV-3 ovarian) [µM] | GI50 (OVCAR-5 ovarian) [µM] | TGI (OVCAR-5 ovarian) [µM] | GI50 (SF-295 CNS) [µM] | TGI (SF-295 CNS) [µM] | TGI (CAKI-1 renal) [µM] | GI50 (SNB-19 CNS) [µM] | TGI (SNB-19 CNS) [µM] | GI50 (PC-3 prostate) [µM] | TGI (PC-3 prostate) [µM] | TGI (HL-60(TB) leukemia) [µM] | GI50 (MDA-MB-435) [µM] | TGI (MDA-MB-435) [µM] | TGI (OVCAR-4 ovarian) [µM] | GI50 (RPMI-8226 leukemia) [µM] | TGI (RPMI-8226 leukemia) [µM] | GI50 (CAKI-1 renal) [µM] | GI50 (HL-60(TB) leukemia) [µM] | GI50 (OVCAR-4 ovarian) [µM] |
| --- | --- | --- | --- | --- | --- | --- | --- | --- | --- | --- | --- | --- | --- | --- | --- | --- | --- | --- | --- | --- |
| CN1CC[C@]2(c3cccc(O)c3)CC(=O)/C(=C/c3ccccc3)[C@H]1C2 | 2.81 | 8.73 | 4.34 | 16.1 | 4.5 | 17 | 9.93 | 4.75 | 17.4 | 3.22 | 12.9 | 5.45 | 2.08 | 8.96 | 11 | 2.1 | > 22 | – | – | – |
| O=C1C=CC(=Nc2ccccc2)c2ccccc21 | – | 80.5 | – | 33.4 | – | 21.1 | 38.2 | – | > 100 | – | 22.6 | 21.7 | – | 3.42 | 27.4 | – | 38.3 | – | – | – |
| CCOC(=O)c1ccc2c(c1)nc(/C=C/c1ccc(Cl)cc1)n2-c1cc(C(C)(C)C)[nH]n1 | 4.28 | 14.8 | 18.5 | > 100 | 2.63 | 8.82 | 61.2 | 5.93 | > 100 | 5.85 | 47 | > 100 | 10.5 | > 100 | 7.31 | 8.14 | > 100 | 5.04 | 39.9 | 1.9 |
| CCOc1ccc2c(C)cc(=O)oc2c1 | – | – | – | > 100 | – | > 100 | > 100 | – | > 100 | – | > 100 | > 100 | – | > 100 | > 100 | – | > 100 | – | – | – |
| CSCC[C@H](NC(=O)[C@H](CC(C)C)NC(=O)[C@@H](Cc1ccccc1)NC(=O)CNC(=O)[C@@H](NC(=O)[C@H](C)NC(=O)[C@H](Cc1c[nH]c2ccccc12)NC(=O)[C@H](CCC(N)=O)NC(=O)[C@H](N)CC(N)=O)C(C)C)C(N)=O | – | > 12.5 | – | > 12.5 | – | > 12.5 | > 12.5 | – | > 12.5 | – | > 12.5 | > 12.5 | – | > 12.5 | > 12.5 | – | > 12.5 | – | – | – |
| NCCCn1c2c(c3ccc([N+](=O)[O-])cc3c1=O)C(=O)c1cc(-c3ccccc3)ccc1-2 | – | – | 1.48 | 2.95 | 1.79 | 3.45 | 3.21 | – | – | 1.35 | 2.71 | 1.3 | 1.65 | 3.11 | 1.62 | 0.348 | 1.45 | 1.67 | 0.5 | 0.399 |
| O=C1CCCCC=C1C[N+](=O)[O-] | > 100 | > 100 | 21.9 | 41.6 | 46.4 | > 100 | 45.8 | 42.1 | > 100 | 41.1 | > 100 | > 100 | 20.6 | 41.2 | 46 | 25.5 | 58.5 | 17.9 | 14 | 21.4 |
| c1ccc(Nc2nc(-c3ccccn3)cs2)nc1 | 0.74 | > 100 | 2.35 | > 100 | 0.297 | 6.61 | 2.12 | 0.997 | > 100 | 0.568 | > 89.9 | 3.01 | 0.689 | > 53.5 | > 100 | 0.548 | 76.2 | 0.0992 | 0.392 | 0.593 |
| Cc1[nH]c(C(=O)Nc2ccccc2OC2CCNCC2)c(Cl)c1Cl | 8.46 | 16.1 | 1.28 | 4.32 | 0.917 | 1.68 | 2.11 | 1.25 | 3.44 | 1.39 | 5.23 | 2.26 | 0.883 | 1.62 | 1.69 | 1.04 | 2.59 | 0.781 | 1.05 | 0.901 |
| O=S(=O)(c1ccc(Br)cc1)N1CCN(S(=O)(=O)c2ccc(Br)cc2)CC1 | – | > 100 | – | > 100 | – | > 100 | > 100 | – | > 100 | – | > 100 | > 100 | – | > 100 | > 100 | – | > 100 | – | – | – |
| CCC(CCC(C)C1CCC2C3CC=C4CC(OC5OC(CO)C(O)C(O)C5O)CCC4(C)C3CCC12C)C(C)C (stereo not drawn) | – | > 100 | – | > 100 | – | > 100 | > 100 | – | > 100 | – | > 100 | > 100 | – | > 100 | > 100 | – | > 100 | – | – | – |
| C=C1CC[C@@H]2[C@](C)(COC(C)=O)[C@H](OC(C)=O)CC[C@@]2(C)[C@@H]1CC(Nc1ccc(S(=O)(=O)Nc2cc(C)on2)cc1)C1=CCOC1=O (stereo partly drawn) | 11 | 23.1 | 2.16 | 4.05 | 8.13 | 21 | 14.7 | 3.12 | 12.2 | 1.98 | 4.31 | 3.69 | 1.74 | 4.37 | 10.5 | 1.54 | 5.43 | 4.14 | 1.39 | 2.91 |
| O=[N+]([O-])c1ccc(Sc2nc(Cl)nc(NC3CCCC3)n2)cc1 | > 10 | > 10 | > 10 | > 10 | > 10 | > 10 | > 10 | > 10 | > 10 | > 10 | > 10 | > 10 | > 10 | > 10 | > 10 | > 10 | > 10 | 3.9 | > 10 | > 10 |
| Nc1ccccc1NC(=O)c1ccc(CN2CCC/C(=C\c3ccccn3)C2=O)cc1 | 1.93 | > 100 | – | – | 1.92 | 11.7 | 9.19 | 3.16 | > 100 | 1.33 | > 100 | 6.48 | 0.357 | 1.77 | > 100 | 0.686 | 5.66 | 1.41 | 0.467 | 2.66 |
| O=c1c2cccc(F)c2sc2c(N3CCNCC3)nc3ccccc3c12 | 1.64 | 3.41 | 1.59 | 3.03 | 1.76 | 3.33 | 2.73 | – | – | 1.26 | 2.7 | 3.44 | 1.74 | 3.2 | 3.08 | 1.69 | 3.73 | 1.35 | 1.76 | 1.64 |
